Source: article PMC4864809, “C‐type natriuretic peptide in combination with sildenafil attenuates proliferation of rhabdomyosarcoma cells” (Cancer Medicine, 2016)

What was measured:
[1] = system: RD‐GC‐B and RMS‐YM‐GC‐B cells; assay: Morphological appearance of cell death during proliferation assay; format: cell-based; settings: during 96 h; CNP 1 μmol/L and/or sildenafil 100 μmol/L
Protocol: (§1) A total of 2000 cells per well were seeded into 96‐well plates in 100 μL of culture medium. After 24 h, the wells were washed twice with 1% serum‐free RPMI‐1640 medium and subsequently incubated in this medium. Twenty‐four hours after serum deprivation, CNP (1 μmol/L) and/or sildenafil (100 μmol/L) were added, and the cells were incubated for 0–4 days. Cell proliferation was determined in sextuplicate using the Cell Counting Kit‐8 (Nacalai Tesque, Kyoto, Japan).

RD‐GC‐B cells [2] = assay: Caspase‐3 activity (Nuc‐View 488 Caspase‐3 assay kit); format: cell-based, human; settings: same conditions as proliferation assay, Nuc‐View 488 substrate, data not shown
[3] = system: Raf/MEK/ERK signaling in RD‐GC‐B cells; assay: Western blot of Raf/MEK/ERK phosphorylation, RD‐GC‐B; format: cell-based, human; settings: for ERK phosphorylation: CNP 1 μmol/L and/or sildenafil 100 μmol/L, 1–8 h
Protocol: (§2) A total of 1 × 10^5 cells per well were plated in 12‐well plastic plates in complete media. Cells were serum‐starved with RPMI‐1640 medium containing 1% serum for 24 h, and then treated with CNP (1 μmol/L) and/or sildenafil (100 μmol/L) for indicated times. Cells were lysed with NP‐40 buffer (0.5% NP‐40, 10 mmol/L Tris [pH 7.6], 0.15 mol/L NaCl, 1.5 mmol/L […]) containing phosphatase inhibitor cocktail (Nacalai Tesque). Samples were electrophoresed on 4–15% gradient gels (Bio‐Rad, Hercules, CA, USA) and transferred onto polyvinylidene difluoride transfer membranes (Millipore Bedford, MA). Antibody binding was detected with an enhanced chemiluminescence detection system (Amersham Pharmacia Biotech, Piscataway, NJ).

[4] = system: Raf/MEK/ERK signaling in RMS‐YM‐GC‐B cells; assay: Western blot of Raf/MEK/ERK phosphorylation, RMS‐YM‐GC‐B; format: cell-based, human; settings: for ERK phosphorylation: CNP 1 μmol/L and/or sildenafil 100 μmol/L, 1–8 h
Protocol: as §2

[5] = system: Notch, Wnt, Hedgehog, and PI3K/AKT/mTOR signaling pathways in RD‐GC‐B cells; assay: Western blot of HES‐1, β‐catenin, GLI1 and phosphorylated Akt, RD‐GC‐B; format: cell-based, human; settings: CNP 1 µM, sildenafil 100 µM, 4 hours
Protocol: as §2

RD‐GC‐B xenograft tumors = assay: Xenograft efficacy study; format: in vivo; settings: for tumor growth (tumor volume): CNP 2.5 μg/kg/min continuous s.c. infusion, versus vehicle; for tumor growth (tumor volume) / Ki67 labeling index: n = 7–8; for Ki67 labeling index: RD‐GC‐B tumors, immunohistochemistry, relative to the control group; for Phosphorylated ERK levels in xenograft tumors: pERK1/2 versus total ERK1/2, western blot densitometry, after 4 weeks of treatment
Protocol: All animal experiments were performed according to a protocol approved by the Animal Care Ethics Committee of the National Cerebral and Cardiovascular Center Research Institute. Five‐week‐old male BALB/c nu/nu mice and 5‐week‐old male nonobese diabetic/severe combined immunodeficiency (NOD)⁄severe combined immunodeficiency (SCID) mice were purchased from Japan SLC (Shizuoka, Japan) and Oriental Yeast (Tokyo, Japan), respectively.
RD‐GC‐B cells (1–3 × 10^7 cells) were subcutaneously implanted into the chest and abdominal area of NOD/SCID mice. When the subcutaneous tumors reached a diameter of 10–12 mm, they were resected, divided into 5‐mm pieces, and reimplanted into the chest area of BALB/c nu/nu mice. Ten days after tumor implantation, administration of CNP and/or sildenafil was initiated. CNP was continuously infused using an osmotic mini‐pump (Alzet Model 1003D; Duret Corporation, Cupertino, CA), as previously reported 14. CNP was subcutaneously administered at a rate of 2.5 μg/kg/min, and treatment continued for 4 weeks. Sildenafil was intraperitoneally administered at a dose of 20 mg/kg every other day for 4 weeks. Tumor volume was calculated by the formula: V (mm^3) = 0.5 × a × b ^2, where a is the longest tumor axis and b is the shortest tumor axis.
Immunohitochemical staining was performed by the avidin‐biotin‐peroxidase complex (ABC) method using the Vectastain Elite ABC kit (Vector, Burlingame, CA) as described previously 14. Because the anti‐Ki67 antibody was mouse monoclonal antibody, a mouse on mouse immunodetection kit (Vector) was used. Images of immunohistochemical staining were captured using a FSX100 Bio Imaging Navigator microscope (Olympus, Tokyo, Japan). Ki67‐positive and ‐negative cells were counted using the CellSens Dimension software (Olympus). Ten randomly selected fields per section and 7–8 sections per animal were analyzed at 20 × magnification.

[6] = target: T1, GC‐B receptors in RD cells (Homo sapiens, UniProt P20594); assay: Measurement of intracellular cGMP (RIA) in RD cells; format: cell-based; settings: 15 min
T1 construct: host or cells: RD cells
T1 sequence (P20594 23-1047): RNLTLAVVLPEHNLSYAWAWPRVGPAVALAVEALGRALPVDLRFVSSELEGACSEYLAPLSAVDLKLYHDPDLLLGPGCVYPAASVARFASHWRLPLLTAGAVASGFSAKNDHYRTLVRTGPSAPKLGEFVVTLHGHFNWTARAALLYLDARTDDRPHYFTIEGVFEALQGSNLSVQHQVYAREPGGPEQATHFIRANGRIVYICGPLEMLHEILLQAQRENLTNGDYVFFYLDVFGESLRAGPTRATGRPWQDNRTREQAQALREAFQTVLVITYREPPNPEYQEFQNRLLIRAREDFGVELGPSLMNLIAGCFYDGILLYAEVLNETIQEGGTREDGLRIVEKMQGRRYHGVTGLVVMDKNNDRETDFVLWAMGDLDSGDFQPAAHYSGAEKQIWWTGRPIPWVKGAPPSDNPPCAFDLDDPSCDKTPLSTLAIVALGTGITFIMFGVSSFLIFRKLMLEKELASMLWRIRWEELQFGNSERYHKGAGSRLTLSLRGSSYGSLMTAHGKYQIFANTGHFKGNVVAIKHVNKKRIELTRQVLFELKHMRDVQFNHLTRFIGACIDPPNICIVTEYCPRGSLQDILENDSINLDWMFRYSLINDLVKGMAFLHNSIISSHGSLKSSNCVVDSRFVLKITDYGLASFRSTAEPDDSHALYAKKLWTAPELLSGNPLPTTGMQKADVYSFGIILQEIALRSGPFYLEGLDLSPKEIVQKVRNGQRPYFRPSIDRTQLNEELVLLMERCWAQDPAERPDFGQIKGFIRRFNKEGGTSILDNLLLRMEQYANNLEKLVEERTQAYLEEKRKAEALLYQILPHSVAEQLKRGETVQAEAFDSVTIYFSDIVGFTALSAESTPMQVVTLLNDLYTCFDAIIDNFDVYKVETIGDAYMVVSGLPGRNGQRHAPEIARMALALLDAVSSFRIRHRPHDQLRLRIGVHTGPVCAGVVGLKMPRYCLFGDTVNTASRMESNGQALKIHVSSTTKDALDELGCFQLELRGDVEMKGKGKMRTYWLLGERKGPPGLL
Protocol: (§3) Rhabdomyosarcoma cells were seeded onto 24‐well plastic plates and incubated for 24 h. After the cells were confluent as a monolayer, they were washed twice with 500 μL of serum‐free RPMI‐1640 and incubated in serum‐free medium for 24 h. CNP was dissolved in 5 mmol/L isobutylmethylxanthine (IBMX) at final concentrations of 1 nmol/L–10 μmol/L. Various concentrations of CNP were added to the medium, and the monolayer was incubated at 37°C for an additional 15 min. The medium was rapidly removed by aspiration, and 400 μL of 70% ethanol containing 100 μmol/L hydrochloric acid (HCl) was added to lyse the cells. The cGMP content of the dried extract was quantitated using a radioimmunoassay (RIA) kit (Yamasa Shoyu, Tokyo, Japan).

[7] = target: T2, GC‐B receptors in RMS‐YM cells (Homo sapiens, UniProt P20594); assay: Measurement of intracellular cGMP (RIA) in RMS‐YM cells; format: cell-based; settings: 15 min
T2 construct: host or cells: RMS‐YM cells
T2 sequence (P20594 23-1047): T1 sequence (P20594 23-1047)
Protocol: as §3

GC‐B in RD‐GC‐B cells = target: T3, GC‐B in RD‐GC‐B cells (Homo sapiens, UniProt P20594); assay: Measurement of intracellular cGMP (RIA) in RD‐GC‐B cells; format: cell-based; settings: RD‐GC‐B cells stably expressing GC‐B
T3 construct: host or cells: RD and RMS‐YM cells, retrovirally infected and puromycin-selected (RD‐GC‐B, RMS‐YM‐GC‐B)
T3 sequence (P20594 23-1047): T1 sequence (P20594 23-1047)
Text: (§4) The plasmid used for preparing retrovirus vector expressing GC‐B‐FLAG (pCX4 puro GC‐B‐FLAG) was constructed by introducing the GC‐B‐FLAG fragment, amplified by polymerase chain reaction (PCR) from human GC‐B obtained from Promega (Madison, WI), into the NotI site of pCX4 puro. The vector was transfected into BOSC cells with pE‐eco and pGp (TAKARA BIO, Kyoto, Japan) using FuGENE6 (Promega) to produce ecotropic retrovirus. After transfection, culture supernatants were collected, and filtered. Retroviral infection of RD and RMS‐YM cells was performed using the retrovirus and Ecotropic Receptor Booster (TAKARA BIO). After infection, cells were selected with puromycin. These resultant cell lines are referred to as RD‐GC‐B or RMS‐YM‐GC‐B.
as §3, with “The medium was rapidly removed by aspiration, and 400 μL of 70% ethanol containing 100 μmol/L hydrochloric acid (HCl) was added to lyse the cells.” left out

[8] = target: T4, GC‐B in RMS‐YM‐GC‐B cells (Homo sapiens, UniProt P20594); assay: Measurement of intracellular cGMP (RIA) in RMS‐YM‐GC‐B cells; format: cell-based; settings: RMS‐YM‐GC‐B cells stably expressing GC‐B
T4 construct: host or cells: RD and RMS‐YM cells, retrovirally infected and puromycin-selected (RD‐GC‐B, RMS‐YM‐GC‐B)
T4 sequence (P20594 23-1047): T1 sequence (P20594 23-1047)
Text: as §4
as §3, with “The medium was rapidly removed by aspiration, and 400 μL of 70% ethanol containing 100 μmol/L hydrochloric acid (HCl) was added to lyse the cells.” left out

RD‐GC‐B cells [9] = assay: Cell proliferation assay (Cell Counting Kit‐8 / WST‐8), RD‐GC‐B; format: cell-based, human; settings: CNP 1 μmol/L, 96 h, 1% serum, versus solvent control, n = 6, three independent experiments
Protocol: as §1

RMS‐YM‐GC‐B cells = assay: Cell proliferation assay (Cell Counting Kit‐8 / WST‐8), RMS‐YM‐GC‐B; format: cell-based, human; settings: CNP 1 μmol/L, 96 h, 1% serum, versus solvent control, n = 6, three independent experiments
Protocol: as §1

parental RD cells = assay: Cell proliferation assay, parental RD; format: cell-based, human; settings: data not shown
Protocol: as §1

parental RMS‐YM cells = assay: Cell proliferation assay, parental RMS‐YM; format: cell-based, human; settings: data not shown
Protocol: as §1

[10] = system: ERK phosphorylation in parental RD cells; assay: Western blot of ERK phosphorylation, parental RD; format: cell-based, human; settings: data not shown
Protocol: as §2

[11] = system: ERK phosphorylation in parental RMS‐YM cells; assay: Western blot of ERK phosphorylation, parental RMS‐YM; format: cell-based, human; settings: data not shown
Protocol: as §2

[12] = Plasma CNP measurements (CNP RIA kit); format: in vivo, C57BL/6 mice; settings: continuous s.c. infusion 2.5 μg/kg/min by osmotic mini‐pump, blood 3 days after implantation, n = 5 versus untreated n = 10
Protocol: Osmotic mini‐pumps containing CNP were implanted subcutaneously in 6‐week‐old male C57BL/6 mice purchased from Japan SLC. CNP was administered at a rate of 2.5 μg/kg/min, and blood samples from these treated mice and untreated mice were withdrawn 3 days after the implantation. CNP content was determined using a CNP RIA kit (Phoenix Pharmaceuticals, Belmont, CA).

[13] = subcutaneous infusion of CNP at 2.5 μg/kg/min; cited from earlier work
Text: There are some limitations in this study. First, RMS cells stably expressing GC‐B expressed higher levels of GC‐B than clinical samples. However, given that the recurrent sample expressed a very high level of GC‐B, the findings made using RMS cells stably expressing GC‐B are still quite valuable.

[14] = sildenafil 20 mg/kg i.p. every other day, 4 weeks
[15] = CNP 1 nmol/L–10 μmol/L with IBMX, 37°C, serum-free, RIA, average of four wells
[16] = CNP 1 μmol/L, sildenafil 100 μmol/L

CCCc1nn(C)c2c(=O)[nH]c(-c3cc(S(=O)(=O)N4CCN(C)CC4)ccc3OCC)nc12 [sildenafil]
morphological appearance of cell death [1]: not observed
caspase‐3 activity (apoptosis) (RD‐GC‐B cells [2]): not significantly induced
ERK phosphorylation [3]: did not cause dephosphorylate ERK
ERK phosphorylation [4]: did not cause dephosphorylate ERK
Expression of HES‐1, β‐catenin, and GLI1, and phosphorylation of Akt [5]: not changed
tumor growth (tumor volume) (RD‐GC‐B xenograft tumors; [14]): did not suppress tumor growth significantly
Ki67 labeling index (RD‐GC‐B xenograft tumors): significantly reduced
Phosphorylated ERK levels in xenograft tumors (RD‐GC‐B xenograft tumors): ~30 % of control levels

C‐type natriuretic peptide [CNP]
CNP concentration at which cGMP levels almost reached a plateau ([6]; with IBMX): ~1 µmol/L
intracellular cGMP levels [6, 15]: increased the intracellular cGMP levels in a dose‐dependent manner
CNP concentration at which cGMP levels almost reached a plateau ([7]; with IBMX): ~1 µmol/L
intracellular cGMP levels [7, 15]: increased the intracellular cGMP levels in a dose‐dependent manner
CNP‐dependent cGMP production (GC‐B in RD‐GC‐B cells): robust increases
CNP‐dependent cGMP production [8]: robust increases
cell proliferation (RD‐GC‐B cells [9]): significantly attenuated
cell proliferation (RMS‐YM‐GC‐B cells): significantly attenuated
effect on proliferation (parental RD cells): no effect
effect on proliferation (parental RMS‐YM cells): no effect
morphological appearance of cell death [1]: not observed
caspase‐3 activity (apoptosis) (RD‐GC‐B cells [2]): not significantly induced
ERK phosphorylation [3]: dephosphorylation of ERK
phosphorylation of Raf‐1 and MEK [3, 16]: Dephosphorylation
ERK phosphorylation [4]: dephosphorylation of ERK
phosphorylation of Raf‐1 and MEK [4, 16]: Dephosphorylation
Expression of HES‐1, β‐catenin, and GLI1, and phosphorylation of Akt [5]: not changed
reduction in ERK phosphorylation [10]: no effect
reduction in ERK phosphorylation [11]: no effect
body weight of mice during treatment (tolerability) (RD‐GC‐B xenograft tumors; 4 weeks, CNP 2.5 μg/kg/min s.c., sildenafil 20 mg/kg i.p. every other day, relative to control group): did not induce weight loss
tumor growth (tumor volume) (RD‐GC‐B xenograft tumors; [14]): did not suppress tumor growth significantly
Ki67 labeling index (RD‐GC‐B xenograft tumors): significantly reduced
Phosphorylated ERK levels in xenograft tumors (RD‐GC‐B xenograft tumors): ~30 % of control levels
plasma concentration of CNP [12]: significantly increased
hypotension [13]: does not cause hypotension
